{"source": "patent US11324720B2", "about": "“Antiproliferative DNA polymerase inhibitor” (NEW YORK MEDICAL COLLEGE, priority 2018, dated 2022)", "key": {"[1]": {"test_system": "R-BxPC-3 cells", "experiment": "Cell proliferation assay, MTT method", "assay_type": "cell-based, human", "settings": "R-BxPC-3 (cisplatin resistant)", "from_the_text": "DNA replication precedes cell division. Thus, cancer cells cannot divide and proliferate without successful chromosomal duplication. A DNA polymerase inhibitor should inhibit cancer cell proliferation. We characterized the antiproliferative properties of zelpolib on a number of cell lines originated from pancreatic cancer (BxPC-3) and breast cancer (MCF7 for ER+ breast cancer). In addition, we developed a cisplatin resistant subline of a pancreatic cancer cell line, R-BxPC3 for our studies as well. We used the MTT method^25 for analyzing cell proliferation. This assay is based on the reduction of 3-(4,5-dimethylthiazol-2-yl)-2,5-diphenyltetrazolium bromide by live cells to an insoluble formazon, which were subsequently dissolved in DMSO and quantified by UV absorbance. Therefore, the cell number is proportional to the optical density in the established linear region. […] The plateau phenomena indicate inhibition of proliferation without cell killing, similar to these observed from hydroxyurea^26, aphidicolin^27, and to a certain extent, methotrexate treatments^28. […]\nHuman cancer cells (5×10^3-7.5×10^3) were initially seeded in 96-well plates (Cellstar) containing 0.2 ml media per well. […] Formazan crystals were then dissolved in 150 μl DMSO and optical density was read at 490 nm^25. […] Results were analyzed by GraphPad Prism. […]"}, "[2]": {"molecular_target": "T1, Pol δ (Homo sapiens, UniProt P28340)", "T1 construct": "made in house; host or cells: insect cells (Pol δ); E. coli (PCNA)", "T1 sequence (P28340 whole entry)": "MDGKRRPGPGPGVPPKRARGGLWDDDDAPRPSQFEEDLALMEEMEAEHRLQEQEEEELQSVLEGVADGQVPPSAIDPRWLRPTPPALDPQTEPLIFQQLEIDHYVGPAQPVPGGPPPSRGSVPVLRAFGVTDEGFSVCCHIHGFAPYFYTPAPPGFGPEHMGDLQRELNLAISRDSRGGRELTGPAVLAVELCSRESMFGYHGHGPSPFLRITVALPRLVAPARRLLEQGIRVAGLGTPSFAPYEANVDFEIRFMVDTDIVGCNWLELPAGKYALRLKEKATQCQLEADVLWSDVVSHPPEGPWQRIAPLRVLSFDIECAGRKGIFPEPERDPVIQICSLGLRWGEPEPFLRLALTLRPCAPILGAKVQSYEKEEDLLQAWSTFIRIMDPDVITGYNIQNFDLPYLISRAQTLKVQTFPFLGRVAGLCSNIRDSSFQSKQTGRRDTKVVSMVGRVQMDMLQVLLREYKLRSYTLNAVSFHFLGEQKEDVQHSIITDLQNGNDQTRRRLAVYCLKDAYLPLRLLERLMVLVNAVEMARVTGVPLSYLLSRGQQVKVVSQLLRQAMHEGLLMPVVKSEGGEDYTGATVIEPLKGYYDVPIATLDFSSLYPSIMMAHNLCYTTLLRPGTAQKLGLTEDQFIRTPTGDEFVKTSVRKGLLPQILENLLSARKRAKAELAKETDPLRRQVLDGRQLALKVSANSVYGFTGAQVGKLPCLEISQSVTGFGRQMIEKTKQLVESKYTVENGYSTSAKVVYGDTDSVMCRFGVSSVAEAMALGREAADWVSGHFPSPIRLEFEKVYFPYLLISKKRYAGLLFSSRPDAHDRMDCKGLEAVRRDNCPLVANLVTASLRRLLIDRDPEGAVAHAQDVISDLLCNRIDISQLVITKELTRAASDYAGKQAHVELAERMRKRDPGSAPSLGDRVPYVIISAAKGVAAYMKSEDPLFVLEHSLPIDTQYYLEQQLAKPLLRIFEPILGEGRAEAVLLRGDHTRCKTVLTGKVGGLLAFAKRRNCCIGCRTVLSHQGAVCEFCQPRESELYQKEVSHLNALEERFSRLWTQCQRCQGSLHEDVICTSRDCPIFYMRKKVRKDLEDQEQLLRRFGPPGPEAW", "T1 sequence (P49005 whole entry partner)": "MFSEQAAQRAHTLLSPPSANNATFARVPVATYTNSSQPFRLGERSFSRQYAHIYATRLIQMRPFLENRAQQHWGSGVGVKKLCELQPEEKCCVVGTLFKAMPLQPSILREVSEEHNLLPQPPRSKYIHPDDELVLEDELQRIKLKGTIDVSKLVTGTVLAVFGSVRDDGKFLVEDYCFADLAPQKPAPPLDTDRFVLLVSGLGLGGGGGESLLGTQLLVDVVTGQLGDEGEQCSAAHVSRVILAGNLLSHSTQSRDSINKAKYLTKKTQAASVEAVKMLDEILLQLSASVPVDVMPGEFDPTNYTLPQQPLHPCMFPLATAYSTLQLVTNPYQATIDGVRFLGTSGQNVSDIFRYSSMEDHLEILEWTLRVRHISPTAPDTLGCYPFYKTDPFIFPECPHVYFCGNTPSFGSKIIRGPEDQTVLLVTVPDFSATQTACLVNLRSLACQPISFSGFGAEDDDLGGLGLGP", "T1 sequence (Q15054 whole entry partner)": "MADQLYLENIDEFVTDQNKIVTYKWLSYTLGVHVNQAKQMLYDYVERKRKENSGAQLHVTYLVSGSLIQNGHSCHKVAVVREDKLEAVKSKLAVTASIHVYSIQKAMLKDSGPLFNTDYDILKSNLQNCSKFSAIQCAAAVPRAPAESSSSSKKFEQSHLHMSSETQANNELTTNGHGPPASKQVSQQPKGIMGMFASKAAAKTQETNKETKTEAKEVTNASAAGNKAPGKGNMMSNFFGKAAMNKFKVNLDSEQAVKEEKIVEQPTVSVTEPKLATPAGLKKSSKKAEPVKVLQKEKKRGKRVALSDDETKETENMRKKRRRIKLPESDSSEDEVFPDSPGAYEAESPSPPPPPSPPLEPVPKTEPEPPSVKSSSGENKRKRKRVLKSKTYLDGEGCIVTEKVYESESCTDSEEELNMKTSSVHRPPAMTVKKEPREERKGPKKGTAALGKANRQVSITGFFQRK", "T1 sequence (P12004 whole entry partner)": "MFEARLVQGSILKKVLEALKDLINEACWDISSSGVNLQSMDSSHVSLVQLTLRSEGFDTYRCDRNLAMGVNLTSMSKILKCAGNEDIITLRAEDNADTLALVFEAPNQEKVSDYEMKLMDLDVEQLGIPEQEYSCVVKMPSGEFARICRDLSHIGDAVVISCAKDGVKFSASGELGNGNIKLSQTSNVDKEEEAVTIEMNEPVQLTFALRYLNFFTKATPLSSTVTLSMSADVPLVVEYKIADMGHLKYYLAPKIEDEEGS", "experiment": "poly(dA)/oligo(dT) DNA polymerase assay", "assay_type": "biochemical", "from_the_text": "In order to validate the predicted inhibitory properties of zelpolib, we used the well-established DNA polymerase assay, poly(dA)/oligo(dT) method^1,16, to quantify the inhibition constants. In this assay, a poly(dA) template (up to 4 kilobases) was randomly primed with oligo(dT) primers (40 mer). In the presence of proliferating cell nuclear antigen (PCNA), Pol δ will initiate the elongation of oligo dT primer with the incorporation of radio-labeled deoxythymidine (^3H). The polymerase activity can then be precisely quantified by counting the isotope incorporated.\nA model structure of the catalytic domain of human Pol δ was generated based on the structure of yeast pol δ^72 by SWISSPDB^73. The primary sequences of both proteins are conserved and the active sites structures were virtually identical between the model structure and that of yeast pol δ. […] Subsequently, the 300 compounds with the highest scores were selected and analyzed by Pymol. […]\nThree different assays are used to analyze DNA polymerase activities and the impact of zelpolib. The poly(dA)/oligo(dT) assay^1,16 were used for precisely quantification as reported. […] [3H]dTMP incorporation was read on liquid scintillation counter. […]"}}, "data": [{"smiles": "COC(=O)c1cc(-c2ccccc2)sc1NC(=S)NNC(=O)CCc1ccc(O)c(O)c1", "note": "[zelpolib]", "values": [{"measurement": "concentration at which antiproliferative effect reaches a plateau", "setting": "[1]", "value": "about 5 μM"}, {"measurement": "inhibition of Pol δ activity at 10 μM", "setting": "[2]; assayed at 10 μM", "value": "significant inhibition"}, {"measurement": "Ki", "setting": "[2]; non-competitive against dTTP, with PCNA, R^2=0.99, read-out: inhibition constant Ki of Pol δ activity", "value": 4.3, "unit": "µM"}]}]}
